# According to US8927548B2, “Triazole compounds that modulate HSP90 activity” (Synta Pharmaceuticals Corp., priority 2006, dated 2015):
# Where a name gives a salt, the structure may show the parent alone.
# Legend:
# Her2 = experiment: Degradation of Her2 in BT-474 cells, Method 1 (Western blot); type: cell-based, human; settings: 0.5 μM, overnight
# Procedure: Human high-Her2 breast carcinoma BT474 (HTB-20), SK-BR-3 (HTB-30) and MCF-7 breast carcinoma (HTB-22) from American Type Culture Collection, VA, USA were grown in Dulbecco's modified Eagle's medium with 4 mM L-glutamine and antibiotics ([…] penicillin and 100 μg/ml streptomycine; GibcoBRL). To obtain exponential cell growth, cells were trypsinized, counted and seeded at a cell density of 0.5×10^6 cells/ml regularly, every 3 days. All experiments were performed on day 1 after cell passage.
# BT-474 cells are treated with 0.5 μM, 2 μM, or 5 μM of 17AAG (a positive control) or 0.5 μM, 2 μM, or 5 μM of a compound of the invention overnight in DMEM medium. After treatment, each cytoplasmic sample is prepared from 1×10^6 cells by incubation of cell lysis buffer (#9803, cell Signaling Technology) on ice for 10 minutes. The resulting supernatant used as the cytosol fractions is dissolved with sample buffer for SDS-PAGE and run on a SDS-PAGE gel, blotted onto a nitrocellulose membrane by using semi-dry transfer. Non-specific binding to nitrocellulose is blocked with 5% skim milk in TBS with 0.5% Tween at room temperature for 1 hour, then probed with anti-Her2/ErB2 mAb (rabbit IgG, #2242, Cell Signaling) and anti-Tubulin (T9026, Sigma) as housekeeping control protein. […]
# Hsp90 = experiment: Degradation of Her2 / inhibition of Hsp90, Method 2: MV-4-11 cell survival after 72 hours (Cell Counting Kit-8); type: cell-based, human; settings: Table 4, IC50 range, MV-4-11 cells
# Procedure: MV-4-11 cells (20,000 cells/well) were cultured in 96-well plates and maintained at 37° C. for several hours. The cells were treated with a compound of the invention or 17AAG (a positive control) at various concentrations and incubated at 37° C. for 72 hours. Cell survival was measured with Cell Counting Kit-8 (Dojindo Laboratories, Cat. # CK04). […] Tables 4-6: IC50 range of compounds of the invention for inhibition of Hsp90
SMILES,degradation of Her2 (Her2),IC50 (Hsp90) [nM]
"C=CCNC1=C2C[C@@H](C)C[C@H](OC)[C@H](O)[C@@H](C)/C=C(\C)[C@H](OC(N)=O)[C@@H](OC)/C=C\C=C(/C)C(=O)NC(=CC1=O)C2=O [Compound 17AAG, 17-allylamino-17-demethoxygeldanamycin]",partial degradation,
"CC(=O)N1Cc2ccc(-n3c(O)nnc3-c3cc(C(C)C)c(O)cc3O)cc2C1 [Compound 23, 1-(5-(3-(2,4-dihydroxy-5-isopropylphenyl)-5-hydroxy-4H-1,2,4-triazol-4-yl)isoindolin-2-yl)ethanone]",,< 500
"CC(C)c1cc(-c2nnc(O)n2-c2ccc3c(c2)CCN3C(=O)C2CCC(N)CC2)c(O)cc1O (stereo not drawn) [Compound 39, (4-Aminocyclohexyl)(5-(3-(2,4-dihydroxy-5-isopropylphenyl)-5-hydroxy-4H-1,2,4-triazol-4-yl)indolin-1-yl)methanone hydrochloride]",,< 1000
